In patent US10918638B2, “Histone deacetylase 6 inhibition for enhancing T-cell function during anti-tumor response and tumor-peptide vaccination” (H. LEE MOFFITT CANCER CENTER AND RESEARCH INSTITUTE, INC., priority 2014, dated 2021):

Columns and labels:
Fc-muMCL1 lymphoma cells [1] = test: Fc-muMCL1 lymphoma tumor growth in C57BL/6 mice; format: in vivo; conditions: C57BL/6 (WT) mice, 35 mg/kg daily for 16 days vs vehicle
Experimental: (§1) FIGS. 3A and 3B. […] (FIG. 3A) C57BL/6 or (FIG. 3B) SCID mice were subcutaneous injected with 3×10^6 Fc-muMCL1 lymphoma cells. After tumor appearance, six mice were treated daily with 35 mg/kg of Tubastatin A and four mice received vehicle control, for 16 days. […] To further evaluate whether these in vivo responses were dependent on T-cells, WT or lympho-deficient, lymphoma-bearing mice were treated with an HDAC6 inhibitor. HDAC6 inhibition led to reduced tumor burden in WT mice, which was absent in lympho-deficient mice, highlighting the importance of lymphocytes in the aforementioned in vivo results. Thus, the role of HDAC6 in regulating immune cells during anti-tumor response appears to be more important than the previously reported role as a regulator of Treg function.

Fc-muMCL1 lymphoma cells [2] = test: Fc-muMCL1 lymphoma tumor growth in SCID mice; format: in vivo; conditions: SCID (lympho-deficient) mice, 35 mg/kg daily for 16 days vs vehicle
Experimental: as §1

In the case of CN1CCc2c(c3ccccc3n2Cc2ccc(C(=O)NO)cc2)C1 [Tubastatin A], the “anti-tumor response / tumor burden” value (Fc-muMCL1 lymphoma cells [1]) is reported as “Enhanced anti-tumor response” and the “anti-tumor response / tumor burden” value (Fc-muMCL1 lymphoma cells [2]) is reported as “dependent on an intact immune system”.
